Results on twelve molecules are retold here after patent publication US3956336A, “9-Alkoxy-5-methyl-6,7-benzomorphans” (Bristol-Myers Company, priority 1975, dated 1976).

The first assay has as its system phenylquinone induced writhing. The assay is described as follows: Phenylquinone writhing, agonist activity, mouse. In kind it is in vivo. To be noted: sc, subcutaneous, 50 percent reduction in number of writhing, as free base. The protocol: (§1) In vivo testing was conducted on various compounds of the instant invention in the form of their respective soluble salts to determine their agonist and/or antagonist properties. The figures reported are the number of milligrams/kilogram of body weight of compound that produced an agonist or antagonist effect in 50% of the mice and rats so tested (ED50). All data is obtained by subcutaneous administration.
(§2) ^1 A 50 percent reduction in number of phenylquinone induced writhing
(§3) (Siegmund, E. A. et al., Proc. Soc. Biol. & Med. 95, 729; 1957).
In general terms: Writhing tests count abdominal constrictions after an irritant is injected.
With `CCCC12CCN(CC3CC3)C(Cc3ccc(O)cc31)C2OC` (racemic) [dl-XIIn, 2-cyclopropylmethyl-2'-hydroxy-9α-methoxy-5-propyl-6,7-benzomorphan], the ED50 was 0.2 mg/kg.
Same read-out and setting: the value for `CO[C@H]1[C@H]2Cc3ccc(O)cc3[C@]1(C)CCN2CC1CC1` (relative stereo) [dl-XIIa, 2-Cyclopropylmethyl-2'-hydroxy-9α-methoxy-5-methyl-6,7-benzomorphan] was 0.087 mg/kg; that for `CO[C@@]1(C)[C@H]2Cc3ccc(O)cc3[C@]1(C)CCN2CC1CC1` (relative stereo) [dl-XIIb, 2-Cyclopropylmethyl-5,9β-dimethyl-2'-hydroxy-9α-methoxy-6,7-benzomorphan] was 1.25 mg/kg.
As to `CO[C@@]1(C)[C@H]2Cc3ccc(O)cc3[C@]1(C)CCN2CC1CCC1` (relative stereo) [dl-XIIc, 2-Cyclobutylmethyl-5,9β-dimethyl-2'-hydroxy-9α-methoxy-6,7-benzomorphan], the 50% effect level (ED50) was put at a dose of 2.18 mg/kg.
The same measure, in the same setting: in the case of `CCO[C@H]1[C@H]2Cc3ccc(O)cc3[C@]1(C)CCN2CC1CC1` (relative stereo) [dl-XIId, 2-Cyclopropylmethyl-9α-ethoxy-2'-hydroxy-5-methyl-6,7-benzomorphan] it was 0.33 mg/kg; in that of `C=CCO[C@H]1[C@H]2Cc3ccc(O)cc3[C@]1(C)CCN2CC1CC1` (relative stereo) [dl-XIIe, 9α-Allyloxy-2-cyclopropylmethyl-2'-hydroxy-5-methyl-6,7-benzomorphan], 5.3 mg/kg.
In turn, `C=CC[C@]12CCN(CC3CC3)[C@H](Cc3ccc(O)cc31)[C@@H]2OC` (relative stereo) [dl-XIIm, 5-Allyl-2-cyclopropylmethyl-2'-hydroxy-9α-methoxy-6,7-benzomorphan] registered an ED50 of 0.026 mg/kg.
On the same count and under the same terms, the value for `CO[C@]1(C)[C@H]2Cc3ccc(O)cc3[C@]1(C)CCN2CC1CC1` (relative stereo) [dl-XIIr, 2-Cyclopropylmethyl-5,9α-dimethyl-2'-hydroxy-9β-methoxy-6,7-benzomorphan] was 1.8 mg/kg.
`CO[C@@H]1[C@H]2Cc3ccc(O)cc3[C@]1(C)CCN2CC1CC1` (relative stereo) [dl-XIIt, 2-Cyclopropylmethyl-2'-hydroxy-9β-methoxy-5-methyl-6,7-benzomorphan] had an ED50 of roughly 20 mg/kg.

The assay is the same for the next values; noted with them: subcutaneous, 50 percent reduction in number of writhing, as free base.
Regarding `COC1(C)C2Cc3ccc(O)cc3C1(C)CCN2CC1CCC1` (racemic) [dl-XIIv, 2-Cyclobutylmethyl-5,9β-dimethyl-2'-hydroxy-9β-methoxy-6,7-benzomorphan], the “ED50 Agonist Activity, Phenylquinone Writhing, Mouse” value stood at 0.19 mg/kg.
`COC1C2Cc3ccc(O)cc3C1(C)CCN2CC1CC1` (single isomer, unassigned; (-)) [l-XIIa, (-)-2-Cyclopropylmethyl-2'-hydroxy-9α-methoxy-5-methyl-6,7-benzomorphan]: the “ED50 Agonist Activity, Phenylquinone Writhing, Mouse” value amounted to 0.053 mg/kg.

The next assay relates to phenylquinone induced writhing. Description: Phenylquinone writhing, agonist activity, rat. The assay is classed as in vivo. Particulars: sc, subcutaneous, 50 percent reduction in number of writhing, as free base. The protocol: as §1, §2, §3
`CO[C@H]1[C@H]2Cc3ccc(O)cc3[C@]1(C)CCN2CC1CC1` (relative stereo) [dl-XIIa, 2-Cyclopropylmethyl-2'-hydroxy-9α-methoxy-5-methyl-6,7-benzomorphan] displayed an ED50 of 0.034 mg/kg.

Still in this assay, the particulars now being: subcutaneous, 50 percent reduction in number of writhing, as free base.
With `COC1C2Cc3ccc(O)cc3C1(C)CCN2CC1CC1` (single isomer, unassigned; (-)) [l-XIIa, (-)-2-Cyclopropylmethyl-2'-hydroxy-9α-methoxy-5-methyl-6,7-benzomorphan], the “ED50 Agonist Activity, Phenylquinone Writhing, Rat” value is 0.021 mg/kg.

The test system of the next assay is Straub Tail induced by oxymorphone. Description: Antagonism of oxymorphone-induced Straub Tail. The assay is classed as in vivo. Particulars: Mus musculus; mice; subcutaneous; oxymorphone 2 mg./kg. sc.; as free base; read-out: ED50 Antagonist Activity, Oxymorphone Straub Tail. The protocol: as §1
^2 Antagonism of Straub Tail induced by oxymorphone (2 mg./kg. sc.) i
For `CO[C@H]1[C@H]2Cc3ccc(O)cc3[C@]1(C)CCN2CC1CC1` (relative stereo) [dl-XIIa, 2-Cyclopropylmethyl-2'-hydroxy-9α-methoxy-5-methyl-6,7-benzomorphan], the ED50 amounted to 0.24 mg/kg.
Same read-out and setting: the value for `CO[C@@]1(C)[C@H]2Cc3ccc(O)cc3[C@]1(C)CCN2CC1CC1` (relative stereo) [dl-XIIb, 2-Cyclopropylmethyl-5,9β-dimethyl-2'-hydroxy-9α-methoxy-6,7-benzomorphan] was 0.16 mg/kg.
Take `CO[C@@]1(C)[C@H]2Cc3ccc(O)cc3[C@]1(C)CCN2CC1CCC1` (relative stereo) [dl-XIIc, 2-Cyclobutylmethyl-5,9β-dimethyl-2'-hydroxy-9α-methoxy-6,7-benzomorphan]: the ED50 was found to be 1.25 mg/kg.
Same read-out and setting: the value for `CCO[C@H]1[C@H]2Cc3ccc(O)cc3[C@]1(C)CCN2CC1CC1` (relative stereo) [dl-XIId, 2-Cyclopropylmethyl-9α-ethoxy-2'-hydroxy-5-methyl-6,7-benzomorphan] was 0.32 mg/kg; that for `C=CCO[C@H]1[C@H]2Cc3ccc(O)cc3[C@]1(C)CCN2CC1CC1` (relative stereo) [dl-XIIe, 9α-Allyloxy-2-cyclopropylmethyl-2'-hydroxy-5-methyl-6,7-benzomorphan] was roughly 0.63 mg/kg; that for `CO[C@]1(C)[C@H]2Cc3ccc(O)cc3[C@]1(C)CCN2CC1CC1` (relative stereo) [dl-XIIr, 2-Cyclopropylmethyl-5,9α-dimethyl-2'-hydroxy-9β-methoxy-6,7-benzomorphan] was 3.5 mg/kg.
Same read-out and setting: the value for `CO[C@@H]1[C@H]2Cc3ccc(O)cc3[C@]1(C)CCN2CC1CC1` (relative stereo) [dl-XIIt, 2-Cyclopropylmethyl-2'-hydroxy-9β-methoxy-5-methyl-6,7-benzomorphan] was roughly 7 mg/kg.

The same assay, now with this note: mice; subcutaneous; oxymorphone 2 mg./kg. sc.; as free base.
Take `COC1(C)C2Cc3ccc(O)cc3C1(C)CCN2CC1CCC1` (racemic) [dl-XIIv, 2-Cyclobutylmethyl-5,9β-dimethyl-2'-hydroxy-9β-methoxy-6,7-benzomorphan]: the “ED50 Antagonist Activity, Oxymorphone Straub Tail” value came to 7.5 mg/kg.
Same read-out and setting: in the case of `COC1C2Cc3ccc(O)cc3C1(C)CCN2CC1CC1` (single isomer, unassigned; (-)) [l-XIIa, (-)-2-Cyclopropylmethyl-2'-hydroxy-9α-methoxy-5-methyl-6,7-benzomorphan] it was 0.10 mg/kg.

The test system of a further assay is righting reflex loss induced by oxymorphone. Description: animal or person. Particulars: Rattus norvegicus; rats; subcutaneous; oxymorphone 1.5 mg./kg. sc.; as free base; read-out: ED50 Antagonist Activity, Oxymorphone Narcosis. In kind it is in vivo. The protocol: as §1
^3 Antagonism of righting reflex loss induced by oxymorphone (1.5
mg./kg. sc.) in 50 percent of rats.
For `CO[C@H]1[C@H]2Cc3ccc(O)cc3[C@]1(C)CCN2CC1CC1` (relative stereo) [dl-XIIa, 2-Cyclopropylmethyl-2'-hydroxy-9α-methoxy-5-methyl-6,7-benzomorphan], the ED50 turned out to be 0.04 mg/kg.
Same read-out and setting: in the case of `CO[C@@]1(C)[C@H]2Cc3ccc(O)cc3[C@]1(C)CCN2CC1CC1` (relative stereo) [dl-XIIb, 2-Cyclopropylmethyl-5,9β-dimethyl-2'-hydroxy-9α-methoxy-6,7-benzomorphan] it was roughly 0.017 mg/kg.
For the molecule `CC(C)=CCN1CCC2(C)c3cc(O)ccc3CC1C2C` (stereo not drawn) [Pentazocine, reference compound], the ED50 is 10.1 mg/kg.

The same assay, now with this note: rats; subcutaneous; oxymorphone 1.5 mg./kg. sc.; as free base.
As for `COC1C2Cc3ccc(O)cc3C1(C)CCN2CC1CC1` (single isomer, unassigned; (-)) [l-XIIa, (-)-2-Cyclopropylmethyl-2'-hydroxy-9α-methoxy-5-methyl-6,7-benzomorphan], the “ED50 Antagonist Activity, Oxymorphone Narcosis” value amounted to 0.017 mg/kg.

The next assay deals with analgesic effect induced by morphine. The assay is described as follows: animal or person. In kind it is in vivo. Particulars: rat; subcutaneous; morphine 15 mg./kg. sc.; 50 percent reduction of analgesic effect; as free base; read-out: ED50 Antagonist Activity, Morphine Antagonism Rat Tail Flick. The protocol: as §1
(15 mg./kg. sc.) as measured by the rat tail flick procedure (Harris, L.
S. and Pierson, A. K., J. Pharmacol. & Expt. Therap., 143, 141; 1964).
Take `CCCC12CCN(CC3CC3)C(Cc3ccc(O)cc31)C2OC` (racemic) [dl-XIIn, 2-cyclopropylmethyl-2'-hydroxy-9α-methoxy-5-propyl-6,7-benzomorphan]: the ED50 worked out at 0.033 mg/kg.
In the case of `CO[C@H]1[C@H]2Cc3ccc(O)cc3[C@]1(C)CCN2CC1CC1` (relative stereo) [dl-XIIa, 2-Cyclopropylmethyl-2'-hydroxy-9α-methoxy-5-methyl-6,7-benzomorphan], the ED50 came out at 0.06 mg/kg.
Take `CO[C@@]1(C)[C@H]2Cc3ccc(O)cc3[C@]1(C)CCN2CC1CC1` (relative stereo) [dl-XIIb, 2-Cyclopropylmethyl-5,9β-dimethyl-2'-hydroxy-9α-methoxy-6,7-benzomorphan]: the ED50 stood at 0.011 mg/kg.
On to `CCO[C@H]1[C@H]2Cc3ccc(O)cc3[C@]1(C)CCN2CC1CC1` (relative stereo) [dl-XIId, 2-Cyclopropylmethyl-9α-ethoxy-2'-hydroxy-5-methyl-6,7-benzomorphan], for which the ED50 was 0.029 mg/kg.
Same read-out and setting: in the case of `C=CC[C@]12CCN(CC3CC3)[C@H](Cc3ccc(O)cc31)[C@@H]2OC` (relative stereo) [dl-XIIm, 5-Allyl-2-cyclopropylmethyl-2'-hydroxy-9α-methoxy-6,7-benzomorphan] it was 0.046 mg/kg; in that of `CO[C@@H]1[C@H]2Cc3ccc(O)cc3[C@]1(C)CCN2CC1CC1` (relative stereo) [dl-XIIt, 2-Cyclopropylmethyl-2'-hydroxy-9β-methoxy-5-methyl-6,7-benzomorphan], 0.18 mg/kg.

Still in this assay, the particulars now being: subcutaneous, morphine 15 mg./kg. sc., 50 percent reduction of analgesic effect, as free base.
Regarding `COC1C2Cc3ccc(O)cc3C1(C)CCN2CC1CC1` (single isomer, unassigned; (-)) [l-XIIa, (-)-2-Cyclopropylmethyl-2'-hydroxy-9α-methoxy-5-methyl-6,7-benzomorphan], the “ED50 Antagonist Activity, Morphine Antagonism Rat Tail Flick” value was 0.019 mg/kg.

By ED50 is commonly meant the midpoint of the dose-response relation.
